Measured values published in patent US8137707B2, “Method of obtaining an active ingredient increasing cutaneous cell and tissue longevity, active ingredients and compositions” (Societe Industrielle Limousine d'Application Biologique, …, priority 2006, dated 2012).

Test system: rat-tail collagen
Experiment: Glycation of collagen induced by glycoaldehyde, fluorescence of glycation products
Type: biochemical
Settings: 32 μl of aminoguanidine at 3.39 M, 14 days at 37° C.
Procedure: The study is carried out according to the operating protocol that follows.
On D0, samples to be tested are prepared in sterile hemolysis tubes: • a non-glycated collagen reference, containing • 1 ml of 3 mg/ml rat-tail collagen, • a glycated collagen reference, containing • 1 ml of 3 mg/ml rat-tail collagen, and • 0.3 ml of a glycoaldehyde solution at 143 mM, inducing the glycation reaction, • a positive reference, containing • 1 ml of 3 mg/ml of rat-tail collagen, • 0.3 ml of a solution of glycoaldehyde at 143 mM, inducing the glycation reaction, and • 32 μl of aminoguanidine at 3.39 M, inhibiting the glycation reaction. • product tests, containing • 1 ml of 3 mg/ml rat-tail collagen, • 0.3 ml of a solution of glycoaldehyde at 143 mM, inducing the glycation reaction, and • the active principle according to the invention at 1%, 2.5% and 5%.
The samples are incubated at 37° C. protected from light for 14 days.
On D14, the fluorescence emitted by the glycation products formed is measured with the aid of a spectrofluorimeter.

SMILES: N=C(N)NN [Positive reference, aminoguanidine]
- Fluorescence Value (glycated collagen reference 449): 189
- Effectiveness (%) (versus glycated collagen reference): −58%
